{
  "source": "patent US8399425B2",
  "about": "“Alleviating neuropathic pain with EETs and sEH inhibitors” (The Regents of the University of California, priority 2007, dated 2013)",
  "key": {"[1]": {"system": "streptozocin induced neuropathic pain", "experiment": "von Frey test (mechanical allodynia) in streptozocin neuropathic rats", "type": "in vivo, rat", "settings": "for neuropathic pain, von Frey test: streptozocin (50 mg/kg iv) rats, subcutaneous, dose and time response", "method": "Male Sprague-Dawley rats weighing 250-300 grains were used. Animals were individually housed at UC Davis Animal Resource Facility under standard conditions with free access to food and water, and maintained for at least 1 week before the experiments. Pain was quantified using three tests, the hind paw withdrawal latency test, the mechanical hyperalgesia test and the mechanical allodynia test. All the experiments were performed during the daytime.\nRats were first trained to the experimental chamber in two separate sessions. On the day of the induction of neuropathy, the animals' basal response to all three tests were measured and then streptozocin (50 mg/kg) was administered intravenously. Animals were then followed over time for the development of neuropathic pain. An inhibitor of sEH was administered subcutaneously one week after the onset of pain symptoms. […] Compounds were formulated by dissolving them in ethanol and mixing with trans free oleic oil. At least six animals per group were used. The Von Frey test was conducted by stimulating the plantar surface of the rats' hind paw with a calibrated filament connected to a force transducer. As this filament is applied the amount of force exerted on the paw increases and the animal withdraws its paw when the force reaches its threshold. […] In the Randal-Selitto test a similar principle is used. The animals' hind paw is placed between a flat surface and a pointed tip of a force transducer. The pointed tip exerts force on the dorsal face of the paw. […] The two tests are complementary, but depend on the activity of different groups of nociceptors.\nTreatments and behavioral nociceptive tests. […] Following baseline measurements, rats were first treated with 200 μl of vehicle or compound-formulated cream by topical application to one hindpaw, LPS ([…] in 50 μl 0.9% NaCl) was injected into the plantar surface of the treated paw. For subcutaneous administration, compounds were injected immediately after intraplantar LPS. […] A probe fitted with a filament that is connected to a force transducer was applied to the plantar hind paw surface through a wire-mesh platform until eliciting a withdrawal reflex. The duration of heat application or the force (gr) necessary to elicit a withdrawal was designated as TWL and MWT. The steroidogenesis inhibitors were applied 2 hours before sEHI and LPS administration. Diabetes was induced by intravenous injection of 50 mg/kg streptozocin (STZ) in saline following baseline measurements. Diabetic animals were tested at least one week after STZ administration. Three measurements were taken from each animal at each time point and average responses were converted to percent analgesia index based on each animals' baseline response."}, "[2]": {"target": "T1, TSPO (Rattus norvegicus, UniProt P16257)", "T1 construct": "rat heart mitochondria was isolated and incubated with; tissue CEREP (France); host or cells: rat heart mitochondria", "experiment": "[3H] PK 11195 radioligand displacement from TSPO, rat heart mitochondria", "type": "binding", "settings": "individual regioisomers compared with the mixture", "method": "Binding studies. Radioligand binding studies were conducted by CEREP (France) according to standard procedures as described by LeFur. Briefly, rat heart mitochondria was isolated and incubated with [^3H] PK11195 at 30° C. in the presence of increasing concentrations of EET-me analogues or EET free acids. Reaction mixture was passed through glass wool filters washed 3 times using cold binding buffer and dried by air. Filter were than counted and IC50 values were calculated."}, "[3]": {"system": "StAR mRNA", "experiment": "StAR mRNA expression in spinal cord and brain (qRT-PCR)", "type": "in vivo, rat", "settings": "for StAR expression in spinal cord and brain: intrathecal, alone, within 30 minutes", "method": "Blood samples for chemical analysis were collected by cardiac puncture under deep isoflurane anesthesia. Plasma was immediately separated by centrifuging at 4000 rpm for 10 minutes in a cold centrifuge. Rats were then decapitated under anesthesia and tissues were removed and flash frozen in liquid nitrogen. For sampling the brain after decapitation, the scalp was first removed providing accessibility to the cranial plates. A midline incision was introduced to detach the cranial plates and brain was carefully exposed by peeling the plates. The brain was removed from the skull using a spatula, immediately placed in liquid nitrogen, and stored at −80° C. The prefrontal area was removed by a coronal cut to the distal one third of the brain from the frozen tissue. The cerebellum was also removed and the brain was hemisected. […] Plasma hormone levels were quantified using RIA. For quantitative RT-PCR, standard procedures were followed."}, "[4]": {"system": "LPS induced hyperalgesia", "experiment": "intraplantar LPS inflammatory pain, thermal hindpaw withdrawal latency", "type": "in vivo, rat", "settings": "for inflammatory pain related behavior: LPS inflammation; for analgesic activity of AEPU on co-administration: 10 mg/kg dermal, co-administered with AEPU", "method": "Treatments and behavioral nociceptive tests. Behavioral nociceptive testing was conducted by assessing thermal hindpaw withdrawal latencies (TWL) using a commercial Hargreaves (Hargreaves et. al […]) apparatus (IITC, Woodland Hills, Calif.), or by determining mechanical hindpaw withdrawal thresholds (MWT) using an electronic von Frey anesthesiometer (IITC, Woodland. Hills, Calif.). For […] determination, a maximum stimulus duration of 22 s was imposed to prevent tissue damage. Following baseline measurements, rats were first treated with 200 μl of vehicle or compound-formulated cream by topical application to one hindpaw, LPS ([…] in 50 μl 0.9% NaCl) was injected into the plantar surface of the treated paw. For subcutaneous administration, compounds were injected immediately after intraplantar LPS. Animals were then placed in acrylic chambers on a glass platform maintained at a temperature of 30±1° C. for measurement or on a wire-mesh platform for MWT measurements. A probe fitted with a filament that is connected to a force transducer was applied to the plantar hind paw surface through a wire-mesh platform until eliciting a withdrawal reflex. The duration of heat application or the force (gr) necessary to elicit a withdrawal was designated as TWL and MWT. The steroidogenesis inhibitors were applied 2 hours before sEHI and LPS administration. Diabetes was induced by intravenous injection of 50 mg/kg streptozocin (STZ) in saline following baseline measurements. Diabetic animals were tested at least one week after STZ administration. Three measurements were taken from each animal at each time point and average responses were converted to percent analgesia index based on each animals' baseline response."}, "[5]": {"system": "ICER", "experiment": "ICER expression in spinal cord", "type": "in vivo, rat", "settings": "LPS", "method": "Blood samples for chemical analysis were collected by cardiac puncture under deep isoflurane anesthesia. Plasma was immediately separated by centrifuging at 4000 rpm for 10 minutes in a cold centrifuge. Rats were then decapitated under anesthesia and tissues were removed and flash frozen in liquid nitrogen. For sampling the brain after decapitation, the scalp was first removed providing accessibility to the cranial plates. A midline incision was introduced to detach the cranial plates and brain was carefully exposed by peeling the plates. The brain was removed from the skull using a spatula, immediately placed in liquid nitrogen, and stored at −80° C. The prefrontal area was removed by a coronal cut to the distal one third of the brain from the frozen tissue. The cerebellum was also removed and the brain was hemisected. Saggital slices with a thickness of 2 mm and weighing 100-200 mg were cut from both hemispheres lateral to the thalamus and stored to be used for qRT-PCR or chemical analysis. Plasma hormone levels were quantified using RIA. For quantitative RT-PCR, standard procedures were followed."}, "[6]": {"system": "streptozocin induced neuropathic pain", "experiment": "mechanical hyperalgesia test (Randal-Selitto) in streptozocin neuropathic rats", "type": "in vivo, rat", "method": "Male Sprague-Dawley rats weighing 250-300 grains were used. Animals were individually housed at UC Davis Animal Resource Facility under standard conditions with free access to food and water, and maintained for at least 1 week before the experiments. Pain was quantified using three tests, the hind paw withdrawal latency test, the mechanical hyperalgesia test and the mechanical allodynia test. All the experiments were performed during the daytime. Rats were first trained to the experimental chamber in two separate sessions. On the day of the induction of neuropathy, the animals' basal response to all three tests were measured and then streptozocin (50 mg/kg) was administered intravenously. Animals were then followed over time for the development of neuropathic pain. An inhibitor of sEH was administered subcutaneously one week after the onset of pain symptoms. […] Pain response was measured at 60, 120, 240 and 480 minutes after the administration of the sEHI. Compounds were formulated by dissolving them in ethanol and mixing with trans free oleic oil. At least six animals per group were used. The Von Frey test was conducted by stimulating the plantar surface of the rats' hind paw with a calibrated filament connected to a force transducer. As this filament is applied the amount of force exerted on the paw increases and the animal withdraws its paw when the force reaches its threshold. […] In the Randal-Selitto test a similar principle is used. The animals' hind paw is placed between a flat surface and a pointed tip of a force transducer. The pointed tip exerts force on the dorsal face of the paw. […] The two tests are complementary, but depend on the activity of different groups of nociceptors."}, "[7]": {"system": "COX-2 mRNA", "experiment": "spinal COX-2 mRNA after intraplantar LPS", "type": "in vivo, rat", "settings": "spinal cord"}},
  "note": "Entries after “also recorded” stand apart in the source; their conditions may differ.",
  "data": [
    {"smiles": "O=C(NC12CC3CC(CC(C3)C1)C2)N[C@H]1CC[C@H](Oc2ccc(C(=O)O)cc2)CC1", "note": "(relative stereo) [t-AUCB, trans-4-[4-(3-adamantan-1-yl-ureido)-cyclohexyloxy]-benzoic acid]", "values": [
      {"measurement": "neuropathic pain, von Frey test", "setting": "[1]", "value": "reduced and at higher doses eliminated"}
    ]},
    {"smiles": "CCCCC/C=C\\C/C=C\\C/C=C\\CC1OC1CCCC(=O)OC", "note": "(centres unmarked) [5,6-EET-me]", "values": [
      {"measurement": "activity on TSPO", "setting": "[2]", "value": "less potent than the mixture were active and more efficacious"}
    ]},
    {"smiles": "CCCCC/C=C\\C/C=C\\CC1OC1C/C=C\\CCCC(=O)OC", "note": "(centres unmarked) [8,9-EET-me]", "values": [
      {"measurement": "activity on TSPO", "setting": "[2]", "value": "completely lacked activity"}
    ]},
    {"smiles": "Nc1ncnc2c1nc(Br)n2[C@@H]1O[C@@H]2COP(=O)(O)O[C@H]2[C@H]1O", "note": "[8-Br cAMP, reference compound]", "values": [
      {"measurement": "StAR expression in spinal cord and brain", "setting": "[3]", "value": "did not change"}
    ]},
    {"smiles": "CCCCCC1OC1C/C=C\\C/C=C\\C/C=C\\CCCC(=O)OC", "note": "(centres unmarked) [14,15-EET-me]", "values": [
      {"measurement": "activity on TSPO", "setting": "[2]", "value": "less potent than the mixture were active and more efficacious"}
    ]},
    {"smiles": "CCOCCOCCOCCCCCNC(=O)NC12CC3CC(CC(C3)C1)C2", "note": "[AEPU, Adamantan-1-yl-3-{5-[2-(2-ethoxyethoxy)ethoxy]pentyl}urea]", "values": [
      {"measurement": "paw withdrawal latency in response to a mild heat stimulus", "setting": "[4]; 50 mg/kg dermally, intraplantar LPS", "value": "transiently increased the paw withdrawal latency"},
      {"measurement": "inflammatory pain related behavior", "setting": "[4]", "value": "had a transient effect on pain however remained analgesic"},
      {"measurement": "StAR message in the brain", "setting": "[3]; compound alone", "value": "neither local inflammation nor AEPU alone elicited an increase"},
      {"measurement": "StAR message in the brain", "setting": "[3]; inflamed animals treated with compound", "value": "two fold increase"},
      {"measurement": "StAR mRNA in the brain", "setting": "[3]; intrathecal with 8-Br cAMP (100 μg), 30 min", "value": "elicited a parallel increase in the brain"},
      {"measurement": "StAR expression in the spinal cord", "setting": "[3]; intrathecal with 8-Br cAMP (100 μg), 30 min, EETs 5 μg, AEPU 1 μg", "value": "increased the expression level of StAR in the spinal cord"},
      {"measurement": "StAR expression in spinal cord and brain", "setting": "[3]", "value": "did not change"},
      {"measurement": "increase in ICER message", "setting": "[5]", "value": "up to 3 fold"}
    ]},
    {"smiles": "O=C(O)CCCCCCCCCCCNC(=O)NC12CC3CC(CC(C3)C1)C2", "note": "[AUDA, 12-(3-Adamantan-1-yl-ureido)dodecanoic acid]", "values": [
      {"measurement": "pain, mechanical hyperalgesia test (FIG. 3)", "setting": "[6]; 10, 20 and 50 mg/kg", "value": "reduced pain in a time and dose dependant"},
      {"measurement": "mechanical allodynia induced by diabetic neuropathy (FIG. 3 legend)", "setting": "[6]; compound 1010 at equivalent dose", "value": "reversed"},
      {"measurement": "decrease in withdrawal threshold", "setting": "[1]; moderate dose", "value": "completely reversed the decrease in withdrawal threshold"},
      {"measurement": "pain scores of diabetic rats", "setting": "[1]; neuropathic pain model", "value": "dose and time dependent improvement in pain scores"},
      {"measurement": "duration of effect", "setting": "[1]; rat, in vivo", "value": "lost its effect after four hours"},
      {"measurement": "neuropathic pain, von Frey test", "setting": "[1]", "value": "reduced neuropathic pain in a dose and time dependant manner"}
    ]},
    {"smiles": "CC(=O)N1CCC(NC(=O)Nc2ccc(OC(F)(F)F)cc2)CC1", "note": "[TPAU]", "values": [
      {"measurement": "neuropathic pain, von Frey test", "setting": "[1]", "value": "reduced and at higher doses eliminated"},
      {"measurement": "analgesic potency compared with morphine", "setting": "[4]; 10 mg/kg vs morphine 1 mg/kg", "value": "potency strikingly comparable to that of a moderate dose of morphine"},
      {"measurement": "inflammatory pain related behavior", "setting": "[4]", "value": "particularly more effective; also recorded: substantially reduced hyperalgesia"},
      {"measurement": "response to stimuli, motor activity", "setting": "[4]; treated animals", "value": "no reduction in response to stimuli or gross signs of loss of motor activity"},
      {"measurement": "spinal COX-2 mRNA increase", "setting": "[7]", "value": "particularly more effective"}
    ]},
    {"smiles": "CCC1(c2ccc(N)cc2)CCC(=O)NC1=O", "note": "(centres unmarked) [aminoglutethimide, reference compound]", "values": [
      {"measurement": "analgesic activity of AEPU on co-administration", "setting": "[4]", "value": "completely abolished"}
    ]},
    {"smiles": "CC(C)(C)NC(=O)[C@H]1CC[C@H]2[C@@H]3CC[C@H]4NC(=O)C=C[C@]4(C)[C@H]3CC[C@]12C", "note": "[finasteride, reference compound]", "values": [
      {"measurement": "analgesic activity of AEPU on co-administration", "setting": "[4]", "value": "completely abolished"}
    ]}
  ]
}
